{"source": "patent US20040023264A1", "about": "“Method for determining the peptide hormone activities or the steroid hormone activities of a material or substance mixture” (priority 2000, published 2004)", "key": {"[1]": {"target": "T1, glucocorticoid receptor (Rattus norvegicus, UniProt P06536)", "T1 sequence (P06536 1-795)": "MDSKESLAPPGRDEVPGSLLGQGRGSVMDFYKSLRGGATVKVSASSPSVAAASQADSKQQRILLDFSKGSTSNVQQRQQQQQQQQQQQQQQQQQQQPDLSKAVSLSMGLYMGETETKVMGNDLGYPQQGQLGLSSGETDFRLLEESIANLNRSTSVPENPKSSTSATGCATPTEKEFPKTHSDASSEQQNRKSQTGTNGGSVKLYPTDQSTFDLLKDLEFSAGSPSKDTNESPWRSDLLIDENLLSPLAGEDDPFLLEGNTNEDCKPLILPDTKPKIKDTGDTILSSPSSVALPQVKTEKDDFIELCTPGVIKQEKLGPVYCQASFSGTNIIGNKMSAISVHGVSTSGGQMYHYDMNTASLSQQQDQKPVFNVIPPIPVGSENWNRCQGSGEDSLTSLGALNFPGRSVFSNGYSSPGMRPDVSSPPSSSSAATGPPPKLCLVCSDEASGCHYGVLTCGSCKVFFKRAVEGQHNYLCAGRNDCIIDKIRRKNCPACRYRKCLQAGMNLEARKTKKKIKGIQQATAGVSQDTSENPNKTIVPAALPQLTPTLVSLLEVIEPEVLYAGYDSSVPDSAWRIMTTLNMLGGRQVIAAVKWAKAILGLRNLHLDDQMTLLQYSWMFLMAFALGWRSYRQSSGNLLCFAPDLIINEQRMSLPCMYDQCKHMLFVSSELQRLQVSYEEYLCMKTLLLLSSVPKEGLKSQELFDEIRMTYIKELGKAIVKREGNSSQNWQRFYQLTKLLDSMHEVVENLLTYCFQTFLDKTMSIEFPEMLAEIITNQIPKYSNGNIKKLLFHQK", "conditions": "CC1 cells"}, "[2]": {"target": "T1, glucocorticoid receptor", "assay": "Glucocorticoid activity bioassay, CC1 cells cotransfected with GRE2-TATA-Luc and glucocorticoid receptor expression plasmid", "type": "cell-based", "set-up": "expressed in transfected cells; host or cells: CC1 cells (permanent rat liver cell line), transiently cotransfected with pSTC-rGR and GRE2-TATA-Luc", "conditions": "for corticosteroid (glucocorticoid) activity of corticosterone:BSA derivatives / glucocorticoid activity (luciferase induction): CC1 cells; for corticosteroid (glucocorticoid) activity of corticosterone:BSA derivatives: each 200 nM, various induction times; for glucocorticoid activity (luciferase induction): different concentrations, induction time 24 h", "method": "These cell lines contain endogenous glucocorticoid receptors. Here, steroid concentration—in this case corticosterone concentration—determines the extent of glucocorticoid activity. […] Induction time: 24 h (see also example 12).\n(§1) Thus, the following examples always concern transit ntly cotransfected CC1or MH 3924 cell."}, "[3]": {"target": "T1, glucocorticoid receptor", "method": "These cell lines contain endogenous glucocorticoid receptors. Here, steroid concentration—in this case corticosterone concentration—determines the extent of glucocorticoid activity. […]\nas §1\nDetermination was carried out as in example 7, however, with MH 3924 cells."}, "[4]": {"target": "androgen receptor (Homo sapiens, UniProt P10275)", "sequence (P10275 whole entry)": "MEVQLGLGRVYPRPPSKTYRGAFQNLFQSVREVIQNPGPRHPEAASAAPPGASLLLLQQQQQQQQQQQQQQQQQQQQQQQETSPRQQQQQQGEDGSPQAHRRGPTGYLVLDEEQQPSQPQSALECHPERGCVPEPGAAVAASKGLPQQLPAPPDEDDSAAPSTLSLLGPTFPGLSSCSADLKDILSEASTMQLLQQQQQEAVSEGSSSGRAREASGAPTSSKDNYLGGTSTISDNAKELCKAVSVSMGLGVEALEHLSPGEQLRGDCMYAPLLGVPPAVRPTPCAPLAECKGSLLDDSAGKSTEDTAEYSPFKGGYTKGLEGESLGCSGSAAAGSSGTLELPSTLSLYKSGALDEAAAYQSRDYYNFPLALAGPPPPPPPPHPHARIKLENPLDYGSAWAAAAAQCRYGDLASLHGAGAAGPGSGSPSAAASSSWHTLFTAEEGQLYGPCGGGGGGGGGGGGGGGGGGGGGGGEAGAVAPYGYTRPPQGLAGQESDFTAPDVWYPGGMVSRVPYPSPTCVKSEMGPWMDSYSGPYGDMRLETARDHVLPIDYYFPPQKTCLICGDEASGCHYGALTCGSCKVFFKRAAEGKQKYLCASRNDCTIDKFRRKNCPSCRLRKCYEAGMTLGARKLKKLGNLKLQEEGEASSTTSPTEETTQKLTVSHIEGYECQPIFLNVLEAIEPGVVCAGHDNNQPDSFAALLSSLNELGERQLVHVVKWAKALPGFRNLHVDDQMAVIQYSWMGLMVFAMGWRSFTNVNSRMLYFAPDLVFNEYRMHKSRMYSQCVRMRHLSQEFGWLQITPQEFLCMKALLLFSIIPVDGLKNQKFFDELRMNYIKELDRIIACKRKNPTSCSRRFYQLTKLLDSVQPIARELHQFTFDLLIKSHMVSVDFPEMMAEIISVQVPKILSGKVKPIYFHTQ", "conditions": "HeLa cells, induction time 24 h", "text": "Transfection method in this experiment was the DOTAP method (Boehringer, Mannheim, Germany).\nThis androgen receptor free cell line was transiently cotransfected with GRE2-TATA-Luc and a recombinant androgen receptor expression plasmid."}, "[5]": {"system": "androgen receptors (AR)", "assay": "Androgen induced luciferase activity in transfected human genital skin fibroblasts (GSF)", "type": "cell-based", "conditions": "mibolerone 2 nM, 24 h incubation; three Luc constructs; strength depends on origin of fibroblasts", "description": "FIG. 1: Androgen induced luciferase activity in human genital skin fibroblasts (GSF) in culture transfected with three different luciferase gen constructs of different androgen sensitivity (“Lu ”): PRE2-Tk-Luc, MMTV-Luc, GRE2-TATA-Luc\nThe only steroid hormone receptors present in GSF are androgen receptors (AR). Mibolerone, which is used in this experiment, is a synthetic androgen with anabolic effectiveness. […] Obviously, GE2-TATA-Luc is the most sensitive reporter gene construct of the ones used here (for comparison, see also example 10 with a MMTV promotor reporter gene construct as well as FIG. 10)."}}}
{"compound": "CC#C[C@]1(O)CC[C@H]2[C@@H]3CCC4=CC(=O)CCC4=C3[C@@H](c3ccc(N(C)C)cc3)C[C@@]21C", "note": "[RU 38486, mifepristone]", "values": [{"measurement": "blocking of luciferase inducing effect of corticosterone and 21-hemisuccinat-corticosterone:BSA (glucocorticoid antagonism)", "setting": "[1]", "value": "extensively blocked"}]}
{"compound": "21-hemisuccinat-corticosterone:BSA", "values": [{"measurement": "corticosteroid (glucocorticoid) activity of corticosterone:BSA derivatives", "setting": "[2]", "value": "strong"}, {"measurement": "luciferase induction by corticosterone derivative bound to BSA (glucocorticoid activity)", "setting": "[2]; cotransfected CC1 cells", "value": "luciferase is induced"}, {"measurement": "concentration at which luciferase induction is easily measurable", "setting": "[3]; MH 3924 cells, short term induction of 10 to 30 min (FIG. 4a)", "value": "≤ 50", "unit": "nM"}]}
{"compound": "C[C@]12C[C@H](O)[C@H]3[C@@H](CCC4=CC(=O)CC[C@@]43C)[C@@H]1CC[C@@H]2C(=O)CO", "note": "[corticosterone]", "values": [{"measurement": "glucocorticoid activity (luciferase induction)", "setting": "[2]", "value": "very active"}, {"measurement": "response of MH 3924 cells compared with response of CC1 cells", "setting": "[3]; as in example 7 (24 h)", "value": "distinctly more sensitive"}]}
{"compound": "C[C@]1(O)CC[C@H]2[C@@H]3CCC4=CC(=O)CCC4=C3C=C[C@@]21C", "note": "[R1881, methyltrienolone]", "values": [{"measurement": "concentration at which hormone activity (anabolic potency) can already be detected", "setting": "[4]", "value": 10, "unit": "pM"}]}
{"compound": "C[C@]12CCC(=O)C=C1CC[C@@H]1[C@@H]2CC[C@@]2(C)[C@H]1CC[C@]2(O)C(=O)CO", "note": "[cortexolone, 17α-, 21-dihydroxy-progesterone]", "values": [{"measurement": "glucocorticoid activity (luciferase induction)", "setting": "[2]", "value": "significant glucocorticoid activity"}]}
{"compound": "3-CMO-corticosterone:BSA [3:BSA]", "values": [{"measurement": "corticosteroid (glucocorticoid) activity of corticosterone:BSA derivatives", "setting": "[2]", "value": "weak"}]}
{"compound": "C[C@@H]1CC2=CC(=O)CC[C@@H]2[C@H]2CC[C@@]3(C)[C@@H](CC[C@]3(C)O)[C@@H]21", "note": "[Mibolerone]", "values": [{"measurement": "luciferase activity induced by androgen", "setting": "[5]", "value": "luciferase activity of varying strength"}]}
